Assay results from the supplement of paper PMC4862054.

Columns and labels:
Conditions in all cases: incubation time: 72 h
[1] = system: CAL-85-1; assay: drug sensitivity score (DSS), CellTiter-Glo (DSS (AUC-based score)); higher = stronger drug effect (viability inhibition or cytotoxicity); extreme values may be limits of the assay
Summary of the method: (§1)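 For 72 h, breast cancer cell lines seeded at 20 µl suspension per well in 384-well plates were incubated with compound at 5 concentrations in 10-fold steps spanning a 10,000-fold range that differed by compound. The first reading was CellTox Green fluorescence at 485/520 nm, and the second was CellTiter-Glo luminescence after 10 min at room temperature. Both were normalised per plate to 0.1 % DMSO and a positive kill control, and the drug sensitivity score was obtained from the area under the fitted dose-response curve.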

[2] = system: Hs578T; assay: as above
Summary of the method: as §1

[3] = system: HDQ-P1; assay: as above
Summary of the method: as §1

[4] = system: MCF-10A; assay: as above
Summary of the method: as §1

[5] = system: MDA-MB-231; assay: as above
Summary of the method: as §1

[6] = system: MDA-MB-436; assay: as above
Summary of the method: as §1

[7] = system: CAL-120; assay: as above
Summary of the method: as §1

[8] = system: HCC1937; assay: as above
Summary of the method: as §1

[9] = system: DU-4475; assay: as above
Summary of the method: as §1

[10] = system: CAL-51; assay: as above
Summary of the method: as §1

[11] = system: MDA-MB-468; assay: as above
Summary of the method: as §1

[12] = system: BT-474; assay: as above
Summary of the method: as §1

[13] = system: SK-BR-3; assay: as above
Summary of the method: as §1

[14] = system: MDA-MB-453; assay: as above
Summary of the method: as §1

[15] = system: CAL-148; assay: as above
Summary of the method: as §1

[16] = system: BT-549; assay: as above
Summary of the method: as §1

[17] = system: MFM-223; assay: as above
Summary of the method: as §1

[18] = system: HCC1599; assay: as above
Summary of the method: as §1

[19] = system: HCC1143; assay: as above
Summary of the method: as §1

[20] = system: Hs578T; assay: drug sensitivity score (DSS), CellTox Green (DSS (AUC-based score)); higher = stronger drug effect (viability inhibition or cytotoxicity); extreme values may be limits of the assay
Summary of the method: as §1

[21] = system: MCF-10A; assay: as above
Summary of the method: as §1

[22] = system: DU-4475; assay: as above
Summary of the method: as §1

[23] = system: HCC1143; assay: as above
Summary of the method: as §1

Measured: drug sensitivity score

CC(=O)Nc1ccc(C(=O)Nc2ccccc2N)cc1 [Tacedinaline]
0: all assays above
